Source: patent US8323656B2, “Antigen determinant of rheumatoid arthritis-specific autoantibody and use thereof” (priority 2007, dated 2012)

Assays:
[1] = tested on: RA-specific antibodies (4 anti-CCP2-positive sera); test: Indirect (inhibition) ELISA: cross-reactivity of analytes with RA-specific antibodies, immobilized CCP2 as capture antigen; format: binding, human; settings: unpublished epitope mapping studies; result in words
[2] = tested on: RA-specific antibodies (4 anti-CCP2-positive sera); test: as above; format: binding, human; parameters: Cross-reactivity of antibodies with the named analyte: concentration or dose not given beside the values; settings: for Inhibition of antibody binding to the immobilized CCP2: FIG. 1 and 2, analyte at 50 mM, 4 sera, result in words; for Cross-reactivity of antibodies with the named analyte: the analyte itself is named
Source text: A complete set of 21 amino acids and their derivatives were used as analytes to determine if any analyte inhibited the action of the detector antibody in binding to the capture antigen. Determination was made by observation at the single AA level through a series of moving windows of different derivatization. Following this procedure ensures that no antigenic elements of the epitope are missed as long as the possible AA derivatives are available. The analysis began in the fluid phase, wherein initially, the detector antibody was incubated with each of the analytes. After overnight incubation at 4° C., 100 μl of analyte preadsorbed detector antibody per well were added into 96-well microplate which immobilized CCP2 on the surface, and was incubated for 1 hour at room temperature with shaking. […] The reaction was stopped by adding 100 μl of 0.5 M H2SO4 per well and the results were estimated at A450 nm.
The concept of indirect ELISA was based upon an inhibition test between an unknown amount of analyte and a known amount of immobilized antigen for a limited number of detector antibody binding-sites. If the contents of detector antibody and immobilized antigen are kept constant, the distribution of detector antibody between immobilized antigen bound detector antibody and analyte bound detector antibody is dependent upon the amount of sample analyte. The mass of immobilized antigen bound detector antibody is inversely proportional to the amount of analyte bound detector antibody.
As described in FIG. 1, Amino Acid Profiles for the Antigenic Determinant, ELISA was carried out with sera from Euro-diagnostica (serum 1) and from three patients (serum 2, 3, and 4) with RA to CCP2 positive at various concentrations of different amino acids. […] The horizontal line at 100% represents the control percent binding of the CCP2 to the antibody.
As described in FIG. 2, Acetylamino Acid Profiles for the Antigenic Determinant, ELISA was carried out with sera from Euro-diagnostica (serum 1) and from three patients (serum 2, 3, and 4) with RA to CCP2 positive at various concentrations of different acetylamino acids. […] The horizontal line at 100% represents the control percent binding of the CCP2 to the antibody.
As described in FIG. 3, Alkylamino Acid Profiles for the Antigenic Determinant, ELISA was carried out with sera from Euro-diagnostica (serum 1) and from three patients (serum 2, 3, and 4) with RA to CCP2 positive at various concentrations of different alkylamino acids. […] The horizontal line at 100% represents the control percent binding of the CCP2 to the antibody.
As described in FIG. 4, Acetylamino Acid Methyl Ester Profiles for the Antigenic Determinant, ELISA was carried out with sera from Euro-diagnostica (serum 1) and from three patients (serum 2, 3, and 4) with RA to CCP2 positive at various concentrations of different acetylamino acid methyl esters. […] The horizontal line at 100% represents the control percent binding of the CCP2 to the antibody.

NC(=O)NCCC[C@H](N)C(=O)O [Citrulline]
Binding of RA-specific antibodies [1]: does not bind | Inhibition of antibody binding to the immobilized CCP2 [2]: limited capability to inhibit | Cross-reactivity (%) of RA-specific antibody, modified α-amino acid: alkylation + acetylation ([2]; acetylated amino acid methyl ester of the amino acid named, 0 = less than 1%): 100% | Cross-reactivity (%) of RA-specific antibody, modified α-amino acid: acetylation ([2]; acetylated derivative of the amino acid named, 0 = less than 1%): 74% | Cross-reactivity (%) of RA-specific antibody, modified α-amino acid: alkylation ([2]; butyl esterified (Be) derivative): ^Be124% | Cross-reactivity (%) of RA-specific antibody, modified α-amino acid: alkylation ([2]; ethyl esterified (Ee) derivative): ^Ee72% | Cross-reactivity (%) of RA-specific antibody, modified α-amino acid: alkylation ([2]; methyl esterified (Me) derivative of the amino acid named, 0 = less than 1%): ^Me81% | Cross-reactivity (%) of RA-specific antibody, modified α-amino acid: alkylation ([2]; propyl esterified (Pe) derivative): ^Pe115% | Cross-reactivity of antibodies with the named analyte [2]: zero | Cross-reactivity (%) of RA-specific antibody, α-amino acid ([2]; unmodified α-amino acid, 0 = cross-reactivity less than 1%): 0%

CC(=O)N[C@@H](CCCNC(N)=O)C(=O)O [acetyl-Cit]
Inhibition of antibody binding to the immobilized CCP2 [2]: strong inhibition | Cross-reactivity of antibodies with the named analyte [2]: 74%

COC(=O)[C@H](CS)NC(C)=O [acetyl-Cys-Me]
Cross-reactivity of antibodies with the named analyte [2]: 57%

CC(=O)N[C@@H](CS)C(=O)O [acetyl-Cys]
Inhibition of antibody binding to the immobilized CCP2 [2]: strong inhibition | Cross-reactivity of antibodies with the named analyte [2]: 50%

COC(=O)[C@H](CCSC)NC(C)=O [acetyl-Met-Me]
Cross-reactivity of antibodies with the named analyte [2]: 0%

CSCCC(NC(C)=O)C(=O)O (stereo not shown) [acetyl-Met]
Cross-reactivity of antibodies with the named analyte [2]: 0%

COC(=O)[C@H](CO)NC(C)=O [acetyl-Ser-Me]
Cross-reactivity of antibodies with the named analyte [2]: 0%

CC(=O)N[C@@H](CO)C(=O)O [acetyl-Ser]
Cross-reactivity of antibodies with the named analyte [2]: 0%
